{"source": "patent US20240216385A1", "about": "“A PI3K-DELTA INHIBITOR FOR THE TREATMENT OF PANCREATIC CANCER” (IONCTURA SA, priority 2021, published 2024)", "key": {"[1]": {"system": "KPC mouse model of pancreatic ductal adenocarcinoma (PDAC)", "assay": "KPC mouse model of pancreatic cancer, histological analysis of pancreata", "format": "in vivo", "conditions": "KPC mice treated from 5 to 11 weeks of age; Compound 2 in mixed chow; FIG. 1", "text": "Control animals received normal drinking water and standard chow."}, "[2]": {"system": "KPC/WCB3 cells orthotopically injected into the pancreas", "assay": "KPC/WCB3 orthotopic mouse model of pancreatic cancer, histological analysis of pancreata", "format": "in vivo", "conditions": "orthotopic KPC/WCB3, C57BL/6J mice; treatment from day 7 for one month; FIG. 4", "text": "This model is constituted by the implantation of KPC/WBC3 cells originating from a spontaneous developed donor tumour in KPC mice into the pancreas of male wildtype C57BL/6J recipient mice. The pathology and tumour microenvironment in this model closely resemble human pancreatic cancer.\nControl animals received normal drinking water and standard chow. One month after initiation treatment was stopped and mice were euthanized. Pancreata were harvested and analysed by histological analysis for level of fibrosis, number of Tregs and number of proliferating CAFs."}, "pancreatic cancer": {"system": "pancreatic cancer", "conditions": "pancreatic cancer patients, standard treatment; cited from earlier work"}}, "data": [{"smiles": "C[C@H](NC(=O)CCc1nc2cccnc2n1Cc1ccc(OC(F)(F)F)cc1)c1ccc(Cl)cc1", "note": "[Compound 2, N-[(S)-1-(4-chloro-phenyl)-ethyl]-3-[3-(4-trifluoromethoxy-benzyl)-3H-imidazo[4,5-b]pyridin-2-yl]-propionamide]", "values": [{"measurement": "number of low-grade (PanIN-1 and PanIN-2) lesions", "setting": "[1]", "value": "reduces"}, {"measurement": "tumour burden", "setting": "[1]", "value": "without having significant effects"}, {"measurement": "Tregs", "setting": "[2]", "value": "significantly reduces"}, {"measurement": "proliferating CAFs", "setting": "[2]", "value": "significantly reduces"}, {"measurement": "tumour fibrosis score", "setting": "[2]", "value": "limited effect"}]}, {"smiles": "Nc1ccn([C@@H]2O[C@H](CO)[C@@H](O)C2(F)F)c(=O)n1", "note": "[gemcitabine]", "values": [{"measurement": "average median overall survival", "setting": "pancreatic cancer", "value": 6, "unit": "months"}, {"measurement": "response rate", "setting": "pancreatic cancer", "value": "5-10%"}]}]}
